Source: US11571411B2, “Use of a bisamide derivative of malonic acid for treating allergic and other diseases in humans and animals” (PHARMENTERPRISES ALLERGY LLC, priority 2018, dated 2023)

Key:
[1] = molecular target: T1, human histamine receptor type 3 (Homo sapiens, UniProt Q9Y5N1); assay: Effect on activity of histamine receptor type 3 (intracellular cAMP, CHO cells); type: cell-based; conditions: preincubation with histamine, read-out: IC50, antagonist of histamine receptor type 3
T1 construct: expressed in transfected cells; host or cells: CHO cells

[2] = molecular target: T2, human histamine receptor type 4 (Homo sapiens, UniProt Q9H3N8); assay: Binding of radiolabeled ligand [3H] histamine to histamine receptor type 4; conditions: HEK-293 cells, [3H] histamine (10 nM)
T2 construct: expressed in transfected cells; host or cells: HEK-293 cells

[3] = test system: histamine-induced nasal congestion model; assay: Histamine-induced nasal congestion model in guinea pigs, nasal administration of 1% solution; type: in vivo, guinea pig; conditions: for Resistance in nasal passages, AUC: 1% solution once intranasally, AUC 0-15 minutes
Protocol: A histamine-induced nasal congestion model in guinea pigs was performed according to the standard procedure [Slack R J1, Russell L J, Hall D A, Luttmann M A, Ford A J, Saunders K A, Hodgson S T, Connor H E, Browning C, Clark K L. Pharmacological characterization of GSK1004723, a novel, long-acting antagonist at histamine H(1) and H(3) receptors//Br J Pharmacol. 2011. V.164(6). P.1627-1641]. Guinea pigs were anesthetized, the trachea was isolated, and a cannula was inserted through it into the nasopharynx. The cannula was connected to a blood pressure sensor and artificial respirator (Ugo Basile). A 0.2% solution of histamine was inhaled for 3 minutes. The resistance to air flow in the nasal passages was assessed within 15 minutes after the end of inhalation of the histamine solution. Compound I was administered to guinea pigs once intranasally in the form of a 1% solution (10 μl/nostril) 1 hour and 4 hours before the inhalation of histamine.

T1 sequence (Q9Y5N1 whole entry): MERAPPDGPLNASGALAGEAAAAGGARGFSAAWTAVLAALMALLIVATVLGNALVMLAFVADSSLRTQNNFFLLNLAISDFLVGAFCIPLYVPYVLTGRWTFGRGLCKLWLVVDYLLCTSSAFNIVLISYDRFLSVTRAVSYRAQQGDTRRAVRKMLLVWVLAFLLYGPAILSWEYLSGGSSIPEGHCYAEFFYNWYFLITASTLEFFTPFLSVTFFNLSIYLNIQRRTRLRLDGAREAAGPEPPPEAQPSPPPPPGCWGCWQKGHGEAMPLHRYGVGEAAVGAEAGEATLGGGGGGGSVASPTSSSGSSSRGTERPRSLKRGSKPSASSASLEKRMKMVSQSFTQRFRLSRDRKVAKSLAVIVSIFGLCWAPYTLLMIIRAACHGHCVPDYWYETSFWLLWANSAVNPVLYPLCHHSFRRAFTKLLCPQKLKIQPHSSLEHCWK
T2 sequence (Q9H3N8 whole entry): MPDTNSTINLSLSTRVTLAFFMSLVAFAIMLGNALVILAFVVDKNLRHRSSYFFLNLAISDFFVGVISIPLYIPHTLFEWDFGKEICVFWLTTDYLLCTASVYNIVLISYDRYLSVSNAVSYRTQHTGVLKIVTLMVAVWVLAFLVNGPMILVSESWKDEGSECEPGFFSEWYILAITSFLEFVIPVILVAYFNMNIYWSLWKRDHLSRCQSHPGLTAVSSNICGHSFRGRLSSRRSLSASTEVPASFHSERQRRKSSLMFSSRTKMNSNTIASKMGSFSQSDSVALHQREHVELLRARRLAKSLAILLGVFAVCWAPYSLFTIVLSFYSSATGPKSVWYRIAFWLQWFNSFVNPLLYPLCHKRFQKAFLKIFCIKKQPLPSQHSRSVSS

Compound: O=C(CC(=O)NCCc1cnc[nH]1)NCCc1cnc[nH]1 [Compound I, N,N′-bis(2-(1H-imidazol-5-yl)ethyl)malonamide]
- IC50 [1]: 20 µM
- Ki [2]: 16 µM
- duration of the therapeutic effect ([3]; 1% solution intranasally, guinea pigs, histamine-induced nasal congestion): at least 4 hours
- Resistance in nasal passages, AUC ([3]; 1 hour before histamine inhalation): 317.95 ± 24.49*& see H2O×c
- Resistance in nasal passages, AUC ([3]; 3 hours before histamine inhalation): 281.75 ± 52.44*& see H2O×c
